Source: patent US7994172B2, “[1H-pyrazolo[3, 4-D]pyrimidin-4-yl]-piperidine or -piperazine compounds as serine-theoronine kinase modulators (P70s6k, Atk1 and Atk2) for the treatment of immunological, inflammatory and proliferative diseases” (Exelixis, Inc., priority 2004, dated 2011)

Assays:
Format in all cases: biochemical
[1] = target: T1, human Akt1 kinase (kinase domain residues R144-A480, activated with PDK1) (Homo sapiens, UniProt P31749); assay: Akt1 kinase assay, Luciferase-Coupled Chemiluminescent Kinase assay (LCCA); details: 1 μM ATP, 1.3 nM Akt1; read-out: Akt-1 inhibition IC50
T1 construct: made in house
Procedure: (§1) Kinase activity and compound inhibition are investigated using one or more of the three assay formats described below. The ATP concentrations for each assay are selected to be close to the Michaelis-Menten constant (KM) for each individual kinase. Dose-response experiments are performed at 10 different inhibitor concentrations in a 384-well plate format. The data are fitted to four-parameter equation (2) below; where Y is the observed signal, X is the inhibitor concentration, Min is the background signal in the absence of enzyme (0% enzyme activity), Max is the signal in the absence of inhibitor (100% enzyme activity), IC50 is the inhibitor concentration at 50% enzyme inhibition and H represents the empirical Hill's slope to measure the cooperativity. Typically H is close to unity. Y=Min+(Max−Min)/(1+(X/IC50)^H) Equation (2) p70S6 Kinase Assay
Biochemical activity of Akt1 kinase was assessed using a Luciferase-Coupled Chemiluminescent Kinase assay (LCCA) format. Kinase activity was measured as the percent ATP remaining following the kinase reaction. Remaining ATP was detected by luciferase-luciferin-coupled chemiluminescence. Specifically, the reaction was initiated by mixing test compounds, 1 μM ATP, 5 μM crosstide peptide and 1.3 nM Akt1 (baculovirus expressed human Akt1 kinase domain residues R144-A480, activated with PDK1) in a 20 uL assay buffer (20 mM Tris-HCL pH 7.5, 10 mM MgCl2, 0.01% Triton X-100, 1 mM DTT, 3 mM MnCl2). The mixture is incubated at ambient temperature for 3 hours after which 20 μL luciferase-luciferin mix is added and the chemiluminescent signal read using a Wallac Victor2 reader. The luciferase-luciferin mix consists of 50 mM HEPES, pH 7.8, 8.5 μg/mL oxalic acid (pH 7.8), 5 (or 50) mM DTT, 0.4% Triton X-100, 0.25 mg/mL coenzyme A, 63 uM AMP, 28 μg/mL luciferin and 40,000 units/mL luciferase.

[2] = target: T2, human Akt2 kinase (kinase domain residues K146-R480) (Homo sapiens, UniProt P31751); assay: Akt2 kinase assay, Luciferase-Coupled Chemiluminescent Kinase assay (LCCA); details: 2 μM ATP, 10 nM Akt2; read-out: Akt-2 inhibition IC50
T2 construct: human Akt2 kinase domain residues K146-R480; made in house
Procedure: as §1
Biochemical activity of Akt2 kinase was assessed using a Luciferase-Coupled Chemiluminescent Kinase assay (LCCA) format. Kinase activity was measured as the percent ATP remaining following the kinase reaction. Remaining ATP was detected by luciferase-luciferin-coupled chemiluminescence. Specifically, the reaction was initiated by mixing test compounds, 2 μM ATP, 5 μM crosstide peptide and 10 nM Akt2 (baculovirus expressed human Akt2 kinase domain residues K146-R480) in a 20 uL assay buffer (20 mM Tris-HCL pH 7.5, 10 mM MgCl2, 0.03% Triton X-100, 1 mM DTT, 3 mM MnCl2). The mixture is incubated at ambient temperature for 2 hours after which 20 μL luciferase-luciferin mix is added and the chemiluminescent signal read using a Wallac Victor2 reader. The luciferase-luciferin mix consists of 50 mM HEPES, pH 7.8, 8.5 μg/mL oxalic acid (pH 7.8), 5 (or 50) mM DTT, 0.4% Triton X-100, 0.25 mg/mL coenzyme A, 63 uM AMP, 28 μg/mL luciferin and 40,000 units/mL luciferase.

[3] = target: T3, human p70S6 kinase (p70S6K, kinase domain residues 1-421, T412E mutation) (Homo sapiens, UniProt P23443, T412E); assay: p70S6 kinase assay, Luciferase-Coupled Chemiluminescent Kinase assay (LCCA); details: 5 μM ATP, 12 nM p70S6K; read-out: p70S6K inhibition IC50
T3 construct: human p70S6 kinase domainresidues 1-421, containing a T412E mutation; made in house
Procedure: as §1
Biochemical activity of p70S6 kinase was assessed using a Luciferase-Coupled Chemiluminescent Kinase assay (LCCA) format. Kinase activity was measured as the percent ATP remaining following the kinase reaction. Remaining ATP was detected by luciferase-luciferin-coupled chemiluminescence. Specifically, the reaction was initiated by mixing test compounds, 5 μM ATP, 5 μM RRRLSSLRA peptide and 12 nM p70S6K (baculovirus expressed human p70S6 kinase domainresidues 1-421, containing a T412E mutation) in a 20 uL assay buffer (20 mM Tris-HCL pH 7.5, 10 mM MgCl2, 0.02% Triton X-100, 100 mM DTT, 2 mM MnCl2). The mixture is incubated at ambient temperature for 2 hours after which 20 μL luciferase-luciferin mix is added and the chemiluminescent signal read using a Wallac Victor^2 reader. The luciferase-luciferin mix consists of 50 mM HEPES, pH 7.8, 8.5 μg/mL oxalic acid (pH 7.8), 5 (or 50) mM DTT, 0.4% Triton X-100, 0.25 mg/mL coenzyme A, 63 uM AMP, 28 μg/mL luciferin and 40,000 units/mL luciferase.

T1 sequence (P31749 144-480): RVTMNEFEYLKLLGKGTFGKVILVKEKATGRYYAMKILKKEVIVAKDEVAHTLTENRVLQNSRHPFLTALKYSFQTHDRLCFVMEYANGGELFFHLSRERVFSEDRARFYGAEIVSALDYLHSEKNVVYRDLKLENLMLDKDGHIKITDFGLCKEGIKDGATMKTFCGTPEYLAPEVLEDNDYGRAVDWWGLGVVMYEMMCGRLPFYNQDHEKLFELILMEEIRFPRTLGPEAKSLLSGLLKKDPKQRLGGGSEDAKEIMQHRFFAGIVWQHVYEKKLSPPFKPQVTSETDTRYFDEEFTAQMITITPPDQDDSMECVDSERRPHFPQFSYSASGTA
T3 sequence (P23443 1-421 T412E): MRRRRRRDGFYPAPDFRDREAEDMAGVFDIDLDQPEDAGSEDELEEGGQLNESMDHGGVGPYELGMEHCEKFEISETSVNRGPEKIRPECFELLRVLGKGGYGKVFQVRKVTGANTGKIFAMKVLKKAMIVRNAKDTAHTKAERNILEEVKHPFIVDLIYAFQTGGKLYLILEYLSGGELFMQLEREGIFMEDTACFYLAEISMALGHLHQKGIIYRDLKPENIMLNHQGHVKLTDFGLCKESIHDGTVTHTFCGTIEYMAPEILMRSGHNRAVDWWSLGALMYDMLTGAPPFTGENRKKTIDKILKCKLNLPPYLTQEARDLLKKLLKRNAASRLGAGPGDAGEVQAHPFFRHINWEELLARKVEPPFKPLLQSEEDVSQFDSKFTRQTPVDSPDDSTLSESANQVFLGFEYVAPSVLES
T2 sequence (P31751 146-480): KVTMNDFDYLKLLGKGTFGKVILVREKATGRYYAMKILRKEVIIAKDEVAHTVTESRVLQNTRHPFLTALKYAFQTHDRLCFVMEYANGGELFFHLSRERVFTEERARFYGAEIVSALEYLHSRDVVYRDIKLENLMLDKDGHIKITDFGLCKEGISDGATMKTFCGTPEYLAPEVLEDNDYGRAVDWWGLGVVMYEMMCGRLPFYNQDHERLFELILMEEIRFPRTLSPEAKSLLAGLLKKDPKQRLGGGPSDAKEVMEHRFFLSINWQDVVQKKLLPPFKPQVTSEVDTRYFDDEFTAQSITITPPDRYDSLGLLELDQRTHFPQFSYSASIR

IC50 [1] [nM]	IC50 [2] [nM]	IC50 [3] [nM]	SMILES
< 50	50 to 500	< 50	CN(C)CCOC(c1ccc(Cl)cc1)C1CCN(c2ncnc3[nH]nc(Br)c23)CC1 (centres unmarked) [Entry 2, 2-{[[1-(3-bromo-1H-pyrazolo[3,4-d]pyrimidin-4-yl)piperidin-4-yl](4-chlorophenyl)methyl]oxy}-N,N-dimethylethanamine]
> 2000	> 2000	< 50	CC(C)(C)c1ccc(CN2CCN(c3ncnc4[nH]nc(Br)c34)CC2)cc1 [Entry 7, 3-bromo-4-(4-{[4-(1,1-dimethylethyl)phenyl]methyl}piperazin-1-yl)-1H-pyrazolo[3,4-d]pyrimidine]
500 to 2000	> 2000	< 50	FC(F)(F)c1ccc(CN2CCN(c3ncnc4[nH]nc(Br)c34)CC2)cc1 [Entry 11, 3-bromo-4-(4-{[4-(trifluoromethyl)phenyl]methyl}piperazin-1-yl)-1H-pyrazolo[3,4-d]pyrimidine]
50 to 500	> 2000	< 50	Clc1ccc(CN2CCN(c3ncnc4[nH]nc(Br)c34)CC2)cc1 [Entry 19, 3-bromo-4-{4-[(4-chlorophenyl)methyl]piperazin-1-yl}-1H-pyrazolo[3,4-d]pyrimidine]
50 to 500	> 2000	< 50	Clc1ccc(CN2CCN(c3ncnc4[nH]nc(Br)c34)CC2)cc1Cl [Entry 27, 3-bromo-4-{4-[(3,4-dichlorophenyl)methyl]piperazin-1-yl}-1H-pyrazolo[3,4-d]pyrimidine]
< 50	–	< 50	CCc1n[nH]c2ncnc(N3CCC([C@@H](OCCN(C)C)c4ccc(Cl)cc4)CC3)c12 [Entry 88, 2-({(R)-(4-chlorophenyl)[1-(3-ethyl-1H-pyrazolo[3,4-d]pyrimidin-4-yl)piperidin-4-yl]methyl}oxy)-N,N-dimethylethanamine]
< 50	–	< 50	CN(C)CCO[C@H](c1ccc(Cl)cc1)C1CCN(c2ncnc3[nH]nc(Br)c23)CC1 [Entry 89, 2-{[(S)-[1-(3-bromo-1H-pyrazolo[3,4-d]pyrimidin-4-yl)piperidin-4-yl](4-chlorophenyl)methyl]oxy}-N,N-dimethylethanamine]
< 50	–	< 50	Clc1ccc([C@H](OCCN2CCCC2)C2CCN(c3ncnc4[nH]nc(Br)c34)CC2)cc1 [Entry 90, 3-bromo-4-(4-{(R)-(4-chlorophenyl)[(2-pyrrolidin-1-ylethyl)oxy]methyl}piperidin-1-yl)-1H-pyrazolo[3,4-d]pyrimidine]
< 50	–	< 50	CN(C)CCCC(O)(c1ccc(Cl)cc1)C1CCN(c2ncnc3[nH]nc(Br)c23)CC1 (centres unmarked) [Entry 91, 1-[1-(3-bromo-1H-pyrazolo[3,4-d]pyrimidin-4-yl)piperidin-4-yl]-1-(4-chlorophenyl)-4-(dimethylamino)butan-1-ol]
< 50	–	< 50	CN(C)CCO[C@@H](c1ccc(Cl)c(F)c1)C1CCN(c2ncnc3[nH]nc(Br)c23)CC1 [Entry 92, 2-{[(R)-[1-(3-bromo-1H-pyrazolo[3,4-d]pyrimidin-4-yl)piperidin-4-yl](4-chloro-3-fluorophenyl)methyl]oxy}-N,N-dimethylethanamine]
< 50	–	< 50	Clc1ccc([C@H](OCCN2CCCCC2)C2CCN(c3ncnc4[nH]nc(Br)c34)CC2)cc1 [Entry 93, 3-bromo-4-(4-{(R)-(4-chlorophenyl)[(2-piperidin-1-ylethyl)oxy]methyl}piperidin-1-yl)-1H-pyrazolo[3,4-d]pyrimidine]
< 50	–	< 50	CN(C)CCCC(c1ccc(Cl)cc1)C1CCN(c2ncnc3[nH]nc(Br)c23)CC1 (centres unmarked) [Entry 94, 4-[1-(3-bromo-1H-pyrazolo[3,4-d]pyrimidin-4-yl)piperidin-4-yl]-4-(4-chlorophenyl)-N,N-dimethylbutan-1-amine]
< 50	–	< 50	Clc1ccc([C@H](OCCN2CCOCC2)C2CCN(c3ncnc4[nH]nc(Br)c34)CC2)cc1 [Entry 95, 3-bromo-4-(4-{(R)-(4-chlorophenyl)[(2-morpholin-4-ylethyl)oxy]methyl}piperidin-1-yl)-1H-pyrazolo[3,4-d]pyrimidine]
500 to 2000	–	50 to 500	CN(Cc1ccco1)C(c1ccc(F)cc1)C1CCN(c2ncnc3[nH]nc(Br)c23)CC1 (centres unmarked) [Entry 96, 1-[1-(3-bromo-1H-pyrazolo[3,4-d]pyrimidin-4-yl)piperidin-4-yl]-1-(4-fluorophenyl)-N-(furan-2-ylmethyl)-N-methylmethanamine]
500 to 2000	–	50 to 500	CN(Cc1ccccn1)C(c1ccc(F)cc1)C1CCN(c2ncnc3[nH]nc(Br)c23)CC1 (centres unmarked) [Entry 97, 1-[1-(3-bromo-1H-pyrazolo[3,4-d]pyrimidin-4-yl)piperidin-4-yl]-1-(4-fluorophenyl)-N-methyl-N-(pyridin-2-ylmethyl)methanamine]
50 to 500	–	< 50	CN(C)c1ccc(CN(C)C(c2ccc(F)cc2)C2CCN(c3ncnc4[nH]nc(Br)c34)CC2)cc1 (centres unmarked) [Entry 98, 4-{[{[1-(3-bromo-1H-pyrazolo[3,4-d]pyrimidin-4-yl)piperidin-4-yl](4-fluorophenyl)methyl}(methyl)amino]methyl}-N,N-dimethylaniline]
500 to 2000	–	50 to 500	OC(c1ccc2cc[nH]c2c1)N1CCN(c2ncnc3[nH]nc(Br)c23)CC1 (centres unmarked) [Entry 99, [4-(3-bromo-1H-pyrazolo[3,4-d]pyrimidin-4-yl)piperazin-1-yl](1H-indol-6-yl)methanol]
< 50	–	< 50	Fc1cc([C@H](OCCN2CCCC2)C2CCN(c3ncnc4[nH]nc(Br)c34)CC2)ccc1Cl [Entry 100, 3-bromo-4-(4-{(R)-(4-chloro-3-fluorophenyl)[(2-pyrrolidin-1-ylethyl)oxy]methyl}piperidin-1-yl)-1H-pyrazolo[3,4-d]pyrimidine]
500 to 2000	–	50 to 500	Clc1ccc(OC2CCN(c3ncnc4[nH]nc(Br)c34)CC2)cc1 [Entry 101, 3-bromo-4-{4-[(4-chlorophenyl)oxy]piperidin-1-yl}-1H-pyrazolo[3,4-d]pyrimidine]
< 50	–	< 50	CCN(CC)CCO[C@@H](c1ccc(Cl)cc1)C1CCN(c2ncnc3[nH]nc(Br)c23)CC1 [Entry 102, 2-{[(R)-[1-(3-bromo-1H-pyrazolo[3,4-d]pyrimidin-4-yl)piperidin-4-yl](4-chlorophenyl)methyl]oxy}-N,N-diethylethanamine]
50 to 500	–	50 to 500	Clc1ccc(OC2CCN(c3ncnc4[nH]nc(Br)c34)CC2)c(NCCN2CCCC2)c1 [Entry 103, 2-{[1-(3-bromo-1H-pyrazolo[3,4-d]pyrimidin-4-yl)piperidin-4-yl]oxy}-5-chloro-N-(2-pyrrolidin-1-ylethyl)aniline]
